Laboratory results reported in PubChem BioAssay (NCI).
Several values for one entry are separate records, joined by “and”; a condition that tells them apart may be missing. Equal entries are not always repeated.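 Five compound concentrations were applied to cells in 96-well plates for 48 hours; endpoints were derived by simple linear interpolation of the resulting dose-response curve. The concentration for 50% growth inhibition is given as GI50. The concentration for full growth arrest is given as TGI.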

Columns and labels:
Assay in all cases: inhibition of tumour cell growth, NCI panel, 48 h
A549 NSCLC = tested on: A549 NSCLC
BT-549 breast = tested on: BT-549 breast
CCRF-CEM leukemia = tested on: CCRF-CEM leukemia
HCT-116 colon = tested on: HCT-116 colon
HCT-15 colon = tested on: HCT-15 colon
M14 melanoma = tested on: M14 melanoma
MCF7 breast = tested on: MCF7 breast
SW-620 colon = tested on: SW-620 colon
T-47D breast = tested on: T-47D breast
UO-31 renal = tested on: UO-31 renal

## Nc1nc(Cl)cc(NC23CC4CC(CC(C4)C2)C3)n1
A549 NSCLC
  TGI: > 100 µM
BT-549 breast
  TGI: > 100 µM
CCRF-CEM leukemia
  TGI: > 100 µM
HCT-116 colon
  TGI: > 100 µM
HCT-15 colon
  TGI: > 100 µM
M14 melanoma
  TGI: > 100 µM
MCF7 breast
  TGI: > 100 µM
SW-620 colon
  TGI: > 100 µM
T-47D breast
  TGI: > 100 µM
UO-31 renal
  TGI: > 100 µM

## C=C=C(CC(CC(=C)Br)(C(=O)OC)C(=O)OC)S(=O)(=O)c1ccccc1
A549 NSCLC
  TGI: 10.6 µM
BT-549 breast
  TGI: 3.18 µM
CCRF-CEM leukemia
  TGI: > 100 µM
HCT-116 colon
  TGI: 2.22 µM
HCT-15 colon
  TGI: 3.44 µM
M14 melanoma
  TGI: 4.3 µM
MCF7 breast
  TGI: 16.4 µM
SW-620 colon
  TGI: 2.99 µM
T-47D breast
  TGI: > 100 µM
UO-31 renal
  TGI: 3.69 µM

## Cc1cc(C)c2c(c1)C(=O)/C(=C/c1ccccc1C(=O)O)C2
A549 NSCLC
  TGI: > 100 µM
BT-549 breast
  TGI: > 100 µM
CCRF-CEM leukemia
  TGI: > 100 µM
HCT-116 colon
  TGI: > 100 µM
HCT-15 colon
  TGI: > 100 µM
M14 melanoma
  TGI: > 100 µM
MCF7 breast
  TGI: > 100 µM
SW-620 colon
  TGI: > 100 µM
T-47D breast
  TGI: > 100 µM
UO-31 renal
  TGI: > 100 µM

## CC1=C2C(=CO[C@H](C)[C@H]2C)C(=O)C(C(=O)O)=C1O
A549 NSCLC
  GI50: 31.1 µM
  TGI: 142 µM and > 88.1 µM
BT-549 breast
  TGI: 37.1 µM
CCRF-CEM leukemia
  GI50: 27.7 µM
  TGI: > 88.7 µM and 45.9 µM
HCT-116 colon
  TGI: 82.2 µM and 78.5 µM
HCT-15 colon
  GI50: 19.6 µM
  TGI: 60.3 µM and 40.8 µM
M14 melanoma
  TGI: 60.9 µM
MCF7 breast
  GI50: 24.5 µM
  TGI: 52.8 µM and 51.9 µM
SW-620 colon
  GI50: 26.9 µM
  TGI: > 74.5 µM and 77.4 µM
T-47D breast
  TGI: > 94.5 µM
UO-31 renal
  GI50: 22.3 µM
  TGI: 106 µM and 50.6 µM

## CC(C)(C)[Si](C)(C)OCc1cccc(OCCOc2cccc(CO[Si](C)(C)C(C)(C)C)c2[N+](=O)[O-])c1[N+](=O)[O-]
A549 NSCLC
  TGI: > 100 µM
BT-549 breast
  TGI: > 100 µM
CCRF-CEM leukemia
  TGI: > 100 µM
HCT-116 colon
  TGI: > 100 µM
HCT-15 colon
  TGI: > 100 µM
M14 melanoma
  TGI: > 100 µM
MCF7 breast
  TGI: > 100 µM
SW-620 colon
  TGI: > 100 µM
T-47D breast
  TGI: > 100 µM
UO-31 renal
  TGI: > 100 µM

## CN1CC2=C(NC(=S)NC2c2ccccc2)/C(=C/c2ccccc2)C1 (stereo unspecified)
A549 NSCLC
  TGI: > 100 µM
BT-549 breast
  TGI: > 100 µM
CCRF-CEM leukemia
  TGI: > 100 µM
HCT-116 colon
  TGI: 63.3 µM
HCT-15 colon
  TGI: > 100 µM
M14 melanoma
  TGI: 56.6 µM
MCF7 breast
  TGI: > 100 µM
SW-620 colon
  TGI: > 100 µM
T-47D breast
  TGI: > 100 µM
UO-31 renal
  TGI: > 100 µM

## COc1ccc2[nH]c(O)c(/C=c3/cc4c(c(-c5ccc(F)c(OC)c5)n3)=Nc3ccccc3-4)c2c1
A549 NSCLC
  GI50: 4.37 µM
  TGI: 19.3 µM
BT-549 breast
  GI50: 1.89 µM
  TGI: 3.91 µM
CCRF-CEM leukemia
  GI50: 2.13 µM
  TGI: 9.88 µM
HCT-116 colon
  GI50: 1.82 µM
  TGI: 3.37 µM
HCT-15 colon
  GI50: 2.36 µM
  TGI: 5.63 µM
M14 melanoma
  GI50: 2 µM
  TGI: 4.15 µM
MCF7 breast
  GI50: 1.76 µM
  TGI: 4.44 µM
SW-620 colon
  GI50: 1.77 µM
  TGI: 3.8 µM
T-47D breast
  GI50: 1.85 µM
  TGI: 3.78 µM
UO-31 renal
  GI50: 3.86 µM
  TGI: 18.8 µM

## O=[N+]([O-])c1cccc(N=Nc2c(O)c(S(=O)(=O)O)cc3cc(S(=O)(=O)O)ccc23)c1
A549 NSCLC
  TGI: > 100 µM
BT-549 breast
  TGI: > 100 µM
CCRF-CEM leukemia
  TGI: > 100 µM
HCT-116 colon
  TGI: > 100 µM
HCT-15 colon
  TGI: > 100 µM
M14 melanoma
  TGI: > 100 µM
MCF7 breast
  TGI: > 100 µM
SW-620 colon
  TGI: > 100 µM
T-47D breast
  TGI: > 100 µM
UO-31 renal
  TGI: > 100 µM

## CN(C)/N=N/c1nc2c(c(=O)n(C)c(=O)n2C)n1CC(O)CO (stereo unspecified)
A549 NSCLC
  TGI: > 100 µM
BT-549 breast
  TGI: > 100 µM
CCRF-CEM leukemia
  TGI: > 100 µM
HCT-116 colon
  TGI: > 100 µM
HCT-15 colon
  TGI: > 100 µM
M14 melanoma
  TGI: > 100 µM
MCF7 breast
  TGI: > 100 µM
SW-620 colon
  TGI: > 100 µM
T-47D breast
  TGI: > 100 µM
UO-31 renal
  TGI: > 100 µM

## O=C(N/N=C/C=C/c1ccccc1)c1ccccc1Nc1ccccc1C(=O)N/N=C/C=C/c1ccccc1
A549 NSCLC
  TGI: > 100 µM
BT-549 breast
  TGI: > 100 µM
CCRF-CEM leukemia
  TGI: > 100 µM
HCT-116 colon
  TGI: > 100 µM
HCT-15 colon
  TGI: > 100 µM
M14 melanoma
  TGI: > 100 µM
MCF7 breast
  TGI: > 100 µM
SW-620 colon
  TGI: > 100 µM
T-47D breast
  TGI: > 100 µM
UO-31 renal
  TGI: > 100 µM

## COc1cc(C2C3=C(COC3=O)Oc3cc4c(cc32)OCO4)cc(OC)c1O (stereo unspecified)
A549 NSCLC
  TGI: > 60.6 µM
BT-549 breast
  TGI: > 100 µM
CCRF-CEM leukemia
  TGI: > 66.9 µM
HCT-116 colon
  TGI: 0.208 µM
HCT-15 colon
  TGI: > 100 µM
M14 melanoma
  TGI: > 100 µM
MCF7 breast
  TGI: > 48.2 µM
SW-620 colon
  TGI: > 100 µM
T-47D breast
  TGI: 60.3 µM
UO-31 renal
  TGI: 49.6 µM

## O=C(Cc1ccc(Cl)c(Cl)c1)NCC1(N2CCCCC2)CCCCC1
A549 NSCLC
  TGI: > 100 µM
BT-549 breast
  TGI: > 100 µM
CCRF-CEM leukemia
  TGI: > 100 µM
HCT-116 colon
  TGI: > 100 µM
HCT-15 colon
  TGI: > 100 µM
M14 melanoma
  TGI: 34.4 µM
MCF7 breast
  TGI: > 100 µM
SW-620 colon
  TGI: > 100 µM
T-47D breast
  TGI: 89.7 µM
UO-31 renal
  TGI: > 100 µM
